From patent US7696149B2, “Pharmaceutical administration form for peptides, process for its preparation, and use” (AEterna Zentaris GmbH, priority 2000, dated 2010)
Several values for one entry are separate records, joined by “and”; a condition that tells them apart may be missing. Equal entries are not always repeated. Entries after “also recorded” stand apart in the source; their conditions may differ. Non-standard residues stand in square brackets, D forms with d. Residues, ends and D or L forms follow the SMILES beside them. dPhe(4-Cl) = N[C@H](Cc1ccc(Cl)cc1)C(=O)O; d2Nal = N[C@H](Cc1ccc2ccccc2c1)C(=O)O; dCit = NC(=O)NCCC[C@@H](N)C(=O)O; d3Pal = N[C@H](Cc1cccnc1)C(=O)O

Assays:
[1] = Polarization microscopy: aggregation of cetrorelix solutions (days without aggregation); assay type: physicochemical
Experimental: By means of polarization microscopy, aggregation investigations were carried out on solutions of various cetrorelix salts without or with addition of excipients.
In the polarization light microscope with crossed polarizers, aggregated peptide solutions show images which are very similar to those of liquid-crystalline structures. In contrast to this, aggregate-free peptide solutions produce no such effects.
(§1) After reconstitution of these lyophilizates, the solutions ([…]) are investgated in the following tests for aggregate formation and release behaviour: • Polarization microscopy (pol. mic.): days without aggregation. • Filterability in %: • Cetrorelix solutions are prepared according to a standardized procedure and filtered through 0.22 μm or 0.45 μm filters by means of centrifugation. The concentration of cetrorelix in the filtrate is determined by HPLC and indicated as a % value, based on the starting concentration before filtration (filterability in %). • in-vitro release form (RRS, release in Ringer's solution): • % released after 1 h and after 6 h. • The in-vitro release behaviour is determined at 37° C. in a flow procedure using Ringer's solution as medium. The concentration measurement is carried out by HPLC. Cetrorelix samples, corresponding to 10 mg of cetrorelix base, are weighed into the flow cell, mixed with 4 ml of water and stirred for 10 min.

[2] = In-vitro release in Ringer's solution (RRS), flow procedure at 37° C.; assay type: physicochemical
Experimental: as §1

[3] = Rat animal experiment: cetrorelix residual content in the muscle 168 h after injection; assay type: in vivo; details: for Cetrorelix content in the muscle (168 h), % of the dose: rat
Experimental: After reconstitution of these lyophilizates, the solutions (2.5 mg/ml of cetrorelix) are investgated in the following tests for aggregate formation and release behaviour: • Polarization microscopy (pol. mic.): days without aggregation. • Filterability in %: • Cetrorelix solutions are prepared according to a standardized procedure and filtered through 0.22 μm or 0.45 μm filters by means of centrifugation. The concentration of cetrorelix in the filtrate is determined by HPLC and indicated as a % value, based on the starting concentration before filtration (filterability in %). • in-vitro release form (RRS, release in Ringer's solution): • % released after 1 h and after 6 h. • The in-vitro release behaviour is determined at 37° C. in a flow procedure using Ringer's solution as medium. The concentration measurement is carried out by HPLC. Cetrorelix samples, corresponding to 10 mg of cetrorelix base, are weighed into the flow cell, mixed with 4 ml of water and stirred for 10 min.
(§2) In the further rat muscle experiments shown in Table 9, in addition to the residual content in the muscle, the cetrorelix content in the plasma was additionally determined.

[4] = Rat muscle experiment: cetrorelix content in the plasma; assay type: in vivo
From the text: as §2

[5] = Optical appearance of cetrorelix acetate solutions with excipients; assay type: physicochemical
[6] = Cremophor ® EL 5.00%, cetrorelix 2.5 mg/ml
[7] = Cremophor ® EL 10.00%, cetrorelix 2.5 mg/ml
[8] = Cremophor ® EL 20.00%, cetrorelix 2.5 mg/ml
[9] = Cremophor ® EL 20.00%, cetrorelix 5 mg/ml
[10] = Galacturonic acid 2.50%, cetrorelix 2.5 mg/ml, pH 2.6
[11] = Glucaric acid 2.50%, cetrorelix 2.5 mg/ml, pH 2.5
[12] = L-glutamic acid 0.80%, cetrorelix 2.5 mg/ml, pH 3.8
[13] = Solutol ® HS 15 5.00%, cetrorelix 2.5 mg/ml
[14] = Solutol ® HS 15 10.00%, cetrorelix 2.5 mg/ml
[15] = Solutol ® HS 15 20.00%, cetrorelix 2.5 mg/ml
[16] = cetrorelix 2.5 mg/ml, Kollidon 0%
[17] = cetrorelix 2.5 mg/ml, Kollidon 5%
[18] = cetrorelix 2.5 mg/ml, Kollidon 10%
[19] = cetrorelix 2.5 mg/ml, Kollidon 15%
[20] = cetrorelix 2.5 mg/ml, Kollidon 20%
[21] = cetrorelix 5 mg/ml, Kollidon 15%
[22] = cetrorelix 5 mg/ml, Kollidon 20%
[23] = conc. of cetrorelix from lyo 2.5 mg/ml
[24] = conc. of cetrorelix from lyo 5 mg/ml
[25] = dose 1.5 mg/kg, inj. soln 3 mg/ml, listed as Acetate
[26] = dose 3.0 mg/kg, inj. soln 15 mg/ml

CC(=O)N[C@H](Cc1ccc2ccccc2c1)C(=O)N[C@H](Cc1ccc(Cl)cc1)C(=O)N[C@H](Cc1cccnc1)C(=O)N[C@@H](CO)C(=O)N[C@@H](Cc1ccc(O)cc1)C(=O)N[C@H](CCCNC(N)=O)C(=O)N[C@@H](CC(C)C)C(=O)N[C@@H](CCCNC(=N)N)C(=O)N1CCC[C@H]1C(=O)N[C@H](C)C(N)=O [cetrorelix acetate] (Ac-[d2Nal][dPhe(4-Cl)][d3Pal]SY[dCit]LRP[dA]-NH2)
Days without aggregation ([1]; 2.5 mg/ml cetrorelix acetate, gluconic acid in reconstitution medium 0%, pH 4.7): 1 days | Days without aggregation ([1]; 2.5 mg/ml cetrorelix acetate, gluconic acid in reconstitution medium 0.0071%, pH 4.5): 2 days | Days without aggregation ([1]; 2.5 mg/ml cetrorelix acetate, gluconic acid in reconstitution medium 0.071%, pH 3.7): 2 days | Days without aggregation ([1]; 2.5 mg/ml cetrorelix acetate, gluconic acid in reconstitution medium 0.71%, pH 3.1): 12 days | Aggregation (microscopy): yes, after ... days [1, 6]: 10 days | Aggregation (microscopy): days without aggregation [1, 7]: ≧112 days | Aggregation (microscopy): days without aggregation [1, 8]: ≧112 days | Aggregation (microscopy): yes, after ... day [1, 9]: yes, after 1 day | Aggregation (microscopy): days without aggregation [1, 10]: ≧12 days | Aggregation (microscopy): days without aggregation [1, 11]: ≧12 days | Aggregation (microscopy): yes, after ... days [1, 12]: yes, after 2 days | Aggregation (microscopy): yes, after ... days [1, 13]: 14 days | Aggregation (microscopy): days without aggregation [1, 14]: ≧112 days | Aggregation (microscopy): days without aggregation [1, 15]: ≧112 days | Days without aggregation ([1]; acetate salt, cetrorelix 2.5 mg/ml, glucuronic acid addition: no, pH 4.7): 0 days | Days without aggregation ([1]; acetate salt, cetrorelix 2.5 mg/ml, glucuronic acid addition: yes, pH 3.0): >21 days | Days without aggregation ([1]; acetate salt, cetrorelix 5 mg/ml, glucuronic acid addition: yes, pH 3.0): 0 days | Days without aggregation with Kollidon ® 12 PF [1, 16]: 0 days | Days without aggregation with Kollidon ® 17 PF [1, 16]: 0 days | Days without aggregation with Kollidon ® 12 PF [1, 17]: 1 days | Days without aggregation with Kollidon ® 17 PF [1, 17]: 2 days | Days without aggregation with Kollidon ® 12 PF [1, 18]: 1 days | Days without aggregation with Kollidon ® 17 PF [1, 18]: 2 days | Days without aggregation with Kollidon ® 12 PF [1, 19]: 77 days | Days without aggregation with Kollidon ® 17 PF [1, 19]: 63 days | Days without aggregation with Kollidon ® 12 PF [1, 20]: 84 days | Days without aggregation with Kollidon ® 17 PF [1, 20]: 98 days | Days without aggregation with Kollidon ® 12 PF [1, 21]: 0 days | Days without aggregation with Kollidon ® 17 PF [1, 21]: 1 days | Days without aggregation with Kollidon ® 12 PF [1, 22]: 0 days | Days without aggregation with Kollidon ® 17 PF [1, 22]: 1 days | Aggregation-free duration ([1]; cetrorelix acetate 2.5 mg/ml, 10% of α-cyclodextrin): 7 days | Aggregation-free duration ([1]; cetrorelix acetate 2.5 mg/ml, 20% of hydroxypropyl-β-cyclodextrin): 24 days | Aggregation-free duration ([1]; cetrorelix acetate 5 mg/ml, 10% of α-cyclodextrin): 0 days | Aggregation-free duration ([1]; cetrorelix acetate 5 mg/ml, 20% of hydroxypropyl-β-cyclodextrin): 7 days | Aggregation-free duration ([1]; cetrorelix acetate 7.5 mg/ml, 10% of α-cyclodextrin): 0 days | Aggregation-free duration ([1]; cetrorelix acetate 7.5 mg/ml, 20% of hydroxypropyl-β-cyclodextrin): 10 days | Aggregation-free duration ([1]; cetrorelix acetate 10 mg/ml, 10% of α-cyclodextrin): 0 days | Aggregation-free duration ([1]; cetrorelix acetate 10 mg/ml, 20% of hydroxypropyl-β-cyclodextrin): 2 days | Aggregation-free duration ([1]; cetrorelix acetate 15 mg/ml, 20% of hydroxypropyl-β-cyclodextrin): 0 days | Aggregation-free duration ([1]; cetrorelix acetate 15 mg/ml, 20% of γ-cyclodextrin): 0 days | Pol. mic days without aggr. [1, 23]: 0 days | Pol. mic days without aggr. [1, 24]: 0 days | RRS, [%] after 1 h [2, 23]: 12% and 13% | RRS, [%] after 6 h [2, 23]: 24.5% and 35.9% | RRS, [%] after 1 h [2, 24]: 10% | RRS, [%] after 6 h [2, 24]: 35% | Cetrorelix content in the muscle (168 h), % of the dose [3, 25]: 55.1 % of the dose | Cetrorelix content in the muscle (168 h), % of the dose [3, 26]: 56.5 % of the dose | Rat % i.m. after 168 h ([3]; residual content in the muscle, % of dose, conc. of cetrorelix 2.5 mg/ml): ~55% | Cetrorelix content in the plasma, % of the dose [4, 25]: 92.2 % of the dose | Cetrorelix content in the plasma, % of the dose [4, 26]: 28.7 % of the dose | Appearance [5, 6]: clear | Appearance [5, 7]: clear | Appearance [5, 8]: clear | Appearance [5, 9]: clear,; also recorded: viscose | Appearance [5, 10]: clear | Appearance [5, 11]: clear | Appearance [5, 12]: clear | Appearance [5, 13]: clear | Appearance [5, 14]: clear | Appearance [5, 15]: clear
